In paper PMC9144282 (Viruses, 2022):
Where two headings read alike, the source gives them in different places. Marks after values point to notes of the source that are not given here.

Experiments:
[1] = target: SARS-CoV-2 recombinant antigen S2 (Severe acute respiratory syndrome coronavirus 2, UniProt P0DTC2)
[2] = tested on: IL-6; assay: xMAP inflammation biomarkers in HEp-2 cells; type: cell-based, human; settings: 2 days posttreatment, concentrations below CC50
[3] = tested on: IL-4; assay: xMAP inflammation biomarkers in HEp-2 cells; type: cell-based, human; settings: 2 days posttreatment, concentrations below CC50
[4] = tested on: G-CSF; assay: xMAP inflammation biomarkers in HEp-2 cells; type: cell-based, human; settings: 2 days posttreatment, concentrations below CC50
[5] = tested on: human cell lines (HEp-2, L41, HT-29); assay: MTT cytotoxicity test, three human cell lines taken together; type: cell-based
[6] = tested on: HT-29
[7] = tested on: IL-17A; assay: xMAP inflammation biomarkers in HEp-2 cells; type: cell-based, human; settings: 2 days posttreatment, concentrations below CC50
[8] = tested on: MS2 Phage; assay: RNase activity by RT^2-PCR, whole MS2 phage; type: biochemical, bacteriophage MS2; settings: 0.1 mg/mL
[9] = tested on: SARS-CoV-2 RNA; type: biochemical; settings: 0.1 mg/mL, 37 °C
[10] = tested on: IFNγ; assay: xMAP inflammation biomarkers in HEp-2 cells; type: cell-based, human; settings: 2 days posttreatment, concentrations below CC50
[11] = tested on: IL-13; assay: xMAP inflammation biomarkers in HEp-2 cells; type: cell-based, human; settings: 2 days posttreatment, concentrations below CC50
[12] = target: SARS-CoV-2 recombinant antigen N (Severe acute respiratory syndrome coronavirus 2, UniProt P0DTC9)
[13] = tested on: L41
[14] = tested on: IL-12(p70); assay: xMAP inflammation biomarkers in HEp-2 cells; type: cell-based, human; settings: 2 days posttreatment, concentrations below CC50
[15] = tested on: HEp-2; assay: MTT cytotoxicity test, HEp-2 cells; settings: HEp-2, MTT; concentration of the studied substance
[16] = tested on: IL-2; assay: xMAP inflammation biomarkers in HEp-2 cells; type: cell-based, human; settings: 2 days posttreatment, concentrations below CC50
[17] = tested on: MIP-1β; assay: xMAP inflammation biomarkers in HEp-2 cells; type: cell-based, human; settings: 2 days posttreatment, concentrations below CC50
[18] = tested on: L41; assay: MTT cytotoxicity test, L41 cells; settings: concentration of the studied substance
[19] = tested on: IL-10; assay: xMAP inflammation biomarkers in HEp-2 cells; type: cell-based, human; settings: 2 days posttreatment, concentrations below CC50
[20] = tested on: IL-7; assay: xMAP inflammation biomarkers in HEp-2 cells; type: cell-based, human; settings: 2 days posttreatment, concentrations below CC50
[21] = tested on: IL-8; assay: xMAP inflammation biomarkers in HEp-2 cells; type: cell-based, human; settings: 2 days posttreatment, concentrations below CC50
[22] = tested on: IL-5; assay: xMAP inflammation biomarkers in HEp-2 cells; type: cell-based, human; settings: 2 days posttreatment, concentrations below CC50
[23] = tested on: TNFα; assay: xMAP inflammation biomarkers in HEp-2 cells; type: cell-based, human; settings: 2 days posttreatment, concentrations below CC50
[24] = tested on: MS2 RNA; assay: RNase activity by RT^2-PCR, isolated MS2 RNA; type: biochemical, bacteriophage MS2; settings: 0.1 mg/mL, 37 °C
[25] = tested on: IL-1β; assay: xMAP inflammation biomarkers in HEp-2 cells; type: cell-based, human; settings: two days after addition
[26] = tested on: MCP-1 (MCAP); assay: xMAP inflammation biomarkers in HEp-2 cells; type: cell-based, human; settings: 2 days posttreatment, concentrations below CC50
[27] = tested on: GM-CSF; assay: xMAP inflammation biomarkers in HEp-2 cells; type: cell-based, human; settings: 2 days posttreatment, concentrations below CC50
[28] = tested on: HT-29; assay: MTT cytotoxicity test, HT-29 cells; settings: HT-29, MTT; concentration of the studied substance
[29] = parameters: method as in earlier work; settings: cited from earlier work
[30] = tested on: SARS-CoV-2 RNA from COVID-19 Patient Blood; type: biochemical
[31] = Stability on storage / in media; type: physicochemical; settings: storage in water solution
[32] = tested on: influenza A viral and cellular RNA; parameters: method as in earlier work; settings: 2 mM, 1 h at 37 °C; cited from earlier work
[33] = Height of nanomaterials by AFM; type: physicochemical

O=[N+]([O-])[O-].[Ag+] [AgNO3]
Effect on binding of antigen S2 with polyclonal antibodies (ELISA) [1]: inhibit binding
Lowest concentration for significant reproducible binding suppression ([1]; ELISA, antigen S2 with human polyclonal antibodies): 100 µg/mL
IL-6, ratio of MFI to control intact cells [2]: 0.85
IL-4, ratio of MFI to control intact cells [3]: 0.84
G-CSF, ratio of MFI to control intact cells [4]: 1.12 ↑
Toxicity for three human cell lines ([5]; silver ions at 10 μg/mL): not toxic
CC50, corresponding concentration of Ag+ [6]: 100 (63.49 Ag+) μg/mL
IL-17A, ratio of MFI to control intact cells [7]: 0.97
Incubation required for complete damage of RNA inside the MS2 phage ([8]; 37 °C (data not shown)): at least 1 h
Incubation necessary for exhaustive hydrolysis of SARS-CoV-2 RNA [9]: 1 h
ΔCt = Ct (sample) − Ct (control), SARS-CoV-2 RNA ([9]; RT^2-PCR): 0.9
IFNγ, ratio of MFI to control intact cells [10]: 1.03
IL-13, ratio of MFI to control intact cells [11]: 0.81
Effect on binding of antigen N with polyclonal antibodies (ELISA) [12]: inhibit binding
Lowest concentration for significant reproducible binding suppression [12]: 100 µg/mL
CC50, corresponding concentration of Ag+ [13]: 100 (63.49 Ag+) μg/mL
IL-12(p70), ratio of MFI to control intact cells [14]: 0.70
Cytotoxic concentration CC50 [15]: 50 (31.75 Ag+) * μg/mL
IL-2, ratio of MFI to control intact cells [16]: 0.74
MIP-1β, ratio of MFI to control intact cells [17]: 1.17 ↑
Cytotoxic concentration CC50 [18]: 100 (63.49 Ag+) μg/mL
IL-10, ratio of MFI to control intact cells [19]: 0.78
IL-7, ratio of MFI to control intact cells [20]: 0.70
IL-8, ratio of MFI to control intact cells [21]: 3.71 ↑
IL-5, ratio of MFI to control intact cells [22]: 0.88
TNFα, ratio of MFI to control intact cells [23]: 1.15 ↑
Time for complete cleavage of isolated MS2 RNA [24]: 15 min
IL1β production [25]: up to 0.08 pg/mL
MCP-1 (MCAP), ratio of MFI to control intact cells [26]: 1.19 ↑
GM-CSF, ratio of MFI to control intact cells [27]: 0.92
Cytotoxic concentration CC50 [28]: 100 (63.49 Ag+) μg/mL

Li^+[Ag^+2Cys2^−(OH^−)2(NH3)2] [Ag-2S]
Damage of cellular DNA and viral antigens after incubation [29]: neither cellular DNA nor viral antigens were damaged
ΔCt = Ct (sample) − Ct (control), SARS-CoV-2 RNA from COVID-19 Patient Blood [30]: 1.6
Stability of structure and physico-chemical properties during storage [31]: up to 10 years
CC50 ([5]; over the human cell lines (Table 1)): 5.3 to 21.2 µg/mL
CC50 ([5]; range over the human cell lines, read-out: CC50): 10 to 40 µM
ΔCt = Ct (sample) − Ct (control), MS2 Phage ([8]; 37 °C, RT^2-PCR): 7.5
Incubation necessary for exhaustive hydrolysis of SARS-CoV-2 RNA [9]: 1 h
Effect on binding of antigen N with polyclonal antibodies (ELISA) [12]: did not significantly differ from the positive controls
Cytotoxic concentration CC50 [18]: 21.2 (4.32 Ag+) μg/mL
Time for complete cleavage of isolated MS2 RNA [24]: 15 min
Cleavage of total RNA [32]: Complete cleavage
Particle height range (AFM) ([33]; height distribution histograms, includes protein shell for Ag NCs-IgG): 1–2 nm
Most probable height (AFM) ([33]; height histograms): ~ 1 nm
Cytotoxic concentration CC50 [28]: 15.9 (3.24 Ag+) μg/mL
